Measurements: US20260049101A1, “TOPICAL TREATMENT OF SKIN CANCER USING OLIGOPEPTIDES” (BACOBA AG, priority 2022, published 2026)
Entries after “also recorded” stand apart in the source; their conditions may differ. Like-named read-outs stand apart in the source and are kept apart here. Numbered stars: 1 amine (or outer) side, 2 acyl side, 3 side chain; on linkers, the order of the positions; unused ones are H or OH. Square brackets hold non-standard residues; d marks the D form. Peptide text beside a SMILES is read from it. * marks the point of attachment. X1 = CCC(=O)C[C@H](O)C[C@@H](C)C[C@H](N[*:1])C(=O)[*:2]; X2 = COc1ccc2nc(C[C@H](N[*:1])C(=O)[*:2])sc2c1; X5 = O=C([C@H](Cc1nc2ccc(F)cc2s1)N[*:1])[*:2]; Hexenoyl(2E,4S-Me) = CC[C@H](C)/C=C/C(=O)*; Leu(3R-OH) = CC(C)[C@@H](O)[C@H](N)C(=O)O; NH((S)CH(Me)CH2NMe2) = C[C@@H](CN(C)C)N*; Pro(4S-Me) = C[C@@H]1CN[C@H](C(=O)O)C1; NH(1-CH2NMe2-cBu) = CN(C)CC1(N*)CCC1; Gly(octyl) = CCCCCCCC[C@H](N)C(=O)O; Oxazole4CO(2-Me) = Cc1nc(C(=O)*)co1; Benzoyl(4-F) = O=C(c1ccc(F)cc1)*; hCha = N[C@@H](CCC1CCCCC1)C(=O)O; Nle = CCCC[C@H](N)C(=O)O; NHCH2CH2NHMe = CNCCN*; Aib = CC(C)(N)C(=O)O; X3 = CN(CCN*)CC(F)F; βAla = NCCC(=O)O

Columns and labels:
[1] = system: B16F10 xenografts in C57BL/6 mice; experiment: In vivo efficacy test, dermal treatment of intradermal B16-F10 tumours (tumour volume); parameters: species or system mouse; settings: 20 μl of 0.2% leucinostatin A dermally, treatment not continued longer than 7 days, observed to day 16
Protocol: (§1) In vivo efficacy test methodology. C57Bl/6 mice (Janvier Labs); females; 6-8 weeks old at beginning of the treatment. The tumour was induced through intradermal inoculation of 1×10^5 cells per mouse intradermally in the skin of the neck. A total of 24 mice were used (n=8 for vehicle, n=8 for 5% 6027, n=8 for leucinostatin A 0.2%). Test item was applied starting on day 1 after inoculation of the tumour cells. The test items of 20 μl of 5% 6027 and of 0.2% Leucinostatin A were applied dermally with a pipette once a day every day for up to 21 days to the intact skin area of about 1 cm^2 on the site were the B16-F10 cells had been injected. If ulceration occurred then the animal was removed from the test and sacrificed.
The read out was tumour volume measured three times a week expressed as tumour volume (in cm^3). Additionally, tumour samples were taken for histological analysis (Tumour FFPE) (2 mice per group).

[2] = Dermal tolerability in the in vivo efficacy test; parameters: species or system mouse
Protocol: as §1

[3] = system: cutaneous squamous cell carcinoma cell line SCC12; experiment: In vitro anti-proliferative assay (resazurin) in SCC12; type: cell-based; settings: SCC12, 72 hours
Excerpt: Methodology. The cutaneous squamous cell carcinoma cell culture SCC12 was cultivated in keratinocyte-SFM media (KSFM, Cat #17005042, Gibco) supplemented with human recombinant epidermal growth factor 1-53 (EGF 1-53) and bovine pituitary extract (BFE).
Vehicle treated wells were set to 100% viability.

[4] = system: patient derived Basal Cell Carcinoma (BCC); type: cell-based, human; settings: 20 μM, 4 days, vs DMSO; p<0.002
Excerpt: Tumour material was harvested from an infiltrative basal cell carcinoma (BCC) from a patient's nose.

[5] = system: patient derived Basal Cell Carcinoma (BCC); type: cell-based, human; settings: 20 μM, 4 days, vs DMSO

Structure (SMILES) | IC50 [3] [nM] | other results
CCC(=O)C[C@H](O)C[C@@H](C)C[C@H](NC(=O)[C@@H]1C[C@H](C)CN1C(=O)/C=C/[C@@H](C)CC)C(=O)N[C@H](C(=O)NC(C)(C)C(=O)N[C@@H](CC(C)C)C(=O)N[C@@H](CC(C)C)C(=O)NC(C)(C)C(=O)NC(C)(C)C(=O)NCCC(=O)N[C@@H](C)CN(C)C)[C@H](O)C(C)C [leucinostatin A, reference compound] ({Hexenoyl(2E,4S-Me)}-[Pro(4S-Me)][X1][Leu(3R-OH)][Aib]LL[Aib][Aib][βAla]-{NH((S)CH(Me)CH2NMe2)}; N-terminus and C-terminus assumed) | – | reduction of tumour volume [1]: no significant reduction of tumour volume; skin irritation ([2]; 0.2% leucinostatin A (lowest test concentration)): strong skin irritation with destruction of the epidermis; also recorded: strong skin irritating effect; tolerability of dermal treatment ([2]; 0.2% leucinostatin A once a day): not tolerated
CCCC[C@H](NC(=O)[C@@H]1CCCN1C(=O)c1coc(C)n1)C(=O)N[C@@H](CC(C)C)C(=O)NC(C)(C)C(=O)N[C@@H](CC(C)C)C(=O)N[C@@H](CC(C)C)C(=O)NC(C)(C)C(=O)NC(C)(C)C(=O)NCCC(=O)NC1(CN(C)C)CCC1 [Compound 6781, (2S)—N-[(1S)-1-[(1-{[(1S)-1-{[(1S)-1-({1-[(1-{[2-({1-[(dimethylamino)methyl]cyclobutyl}carbamoyl)ethyl]carbamoyl}-1-methylethyl)carbamoyl]-1-methylethyl}carbamoyl)-3-methylbutyl]carbamoyl}-3-methylbutyl]carbamoyl}-1-methylethyl)carbamoyl]-3-methylbutyl]-2-{[(2S)-1-(2-methyl-1,3-oxazole-4-carbonyl)pyrrolidin-2-yl]formamido}hexanamide] ({Oxazole4CO(2-Me)}-P[Nle]L[Aib]LL[Aib][Aib][βAla]-{NH(1-CH2NMe2-cBu)}) | 6850 | –
COc1ccc2nc(C[C@H](NC(=O)[C@@H]3CCCN3C(=O)c3ccc(F)cc3)C(=O)N[C@@H](CC(C)C)C(=O)NC(C)(C)C(=O)N[C@@H](CC(C)C)C(=O)N[C@@H](CC(C)C)C(=O)NC(C)(C)C(=O)NC(C)(C)C(=O)NCCC(=O)NC3(CN(C)C)CCC3)sc2c1 [Compound 7844, (2S)—N-(1-{[(1S)-1-{[(1S)-1-({1-[(1-{[2-({1-[(dimethylamino)methyl]cyclobutyl}carbamoyl)ethyl]carbamoyl}-1-methylethyl)carbamoyl]-1-methylethyl}carbamoyl)-3-methylbutyl]carbamoyl}-3-methylbutyl]carbamoyl}-1-methylethyl)-2-[(2S)-2-{[(2S)-1-(4-fluorobenzoyl)pyrrolidin-2-yl]formamido}-3-(6-methoxy-1,3-benzothiazol-2-yl)propanamido]-4-methylpentanamide] ({Benzoyl(4-F)}-P[X2]L[Aib]LL[Aib][Aib][βAla]-{NH(1-CH2NMe2-cBu)}) | 546 | –
CS(=O)(=O)c1ccc(C(=O)Nc2ccc(Cl)c(-c3ccccn3)c2)c(Cl)c1 [Vismodegib, reference compound] | – | cell proliferation (Ki67) [4]: significantly reduced; apoptotic cells (TUNEL positive cells) [5]: Significant increase; cell proliferation (Ki67) [5]: significantly reduced
CC(C)C[C@H](NC(=O)[C@H](Cc1nc2ccc(F)cc2s1)NC(=O)[C@@H]1CCCN1C(=O)c1ccc(F)cc1)C(=O)NC(C)(C)C(=O)N[C@@H](CC(C)C)C(=O)N[C@@H](CC(C)C)C(=O)NC(C)(C)C(=O)NC(C)(C)C(=O)NCCC(=O)NC1(CN(C)C)CCC1 [Compound 7848, (2S)—N-(1-{[(1S)-1-{[(1S)-1-({1-[(1-{[2-({1-[(dimethylamino)methyl]cyclobutyl}carbamoyl)ethyl]carbamoyl}-1-methylethyl)carbamoyl]-1-methylethyl}carbamoyl)-3-methylbutyl]carbamoyl}-3-methylbutyl]carbamoyl}-1-methylethyl)-2-[(2S)-3-(6-fluoro-1,3-benzothiazol-2-yl)-2-{[(2S)-1-(4-fluorobenzoyl)pyrrolidin-2-yl]formamido}propanamido]-4-methylpentanamide] ({Benzoyl(4-F)}-P[X5]L[Aib]LL[Aib][Aib][βAla]-{NH(1-CH2NMe2-cBu)}) | 182 | –
CC(C)C[C@H](NC(=O)[C@H](CCC1CCCCC1)NC(=O)[C@@H]1CCCN1C(=O)c1ccc(F)cc1)C(=O)NC(C)(C)C(=O)N[C@@H](CC(C)C)C(=O)N[C@@H](CC(C)C)C(=O)NC(C)(C)C(=O)NC(C)(C)C(=O)NCCC(=O)NCCN(C)CC(F)F [Compound 8342, (2S)-2-[(2S)-4-cyclohexyl-2-{[(2S)-1-(4-fluorobenzoyl)pyrrolidin-2-yl]formamido}butanamido]-N-(1-{[(1S)-1-{[(1S)-1-({1-[(1-{[2-({2-[(2,2-difluoroethyl)(methyl)amino]ethyl}carbamoyl)ethyl]carbamoyl}-1-methylethyl)carbamoyl]-1-methylethyl}carbamoyl)-3-methylbutyl]carbamoyl}-3-methylbutyl]carbamoyl}-1-methylethyl)-4-methylpentanamide] ({Benzoyl(4-F)}-P[hCha]L[Aib]LL[Aib][Aib][βAla]-X3) | 584 | –
CCCCCCCC[C@H](NC(=O)[C@@H]1CCCN1C(=O)c1coc(C)n1)C(=O)N[C@@H](CC(C)C)C(=O)NC(C)(C)C(=O)N[C@@H](CC(C)C)C(=O)N[C@@H](CC(C)C)C(=O)NC(C)(C)C(=O)NC(C)(C)C(=O)NCCC(=O)NCCNC [Compound 7058, (2S)-2-{[(2S)-1-(2-methyl-1,3-oxazole-4-carbonyl)pyrrolidin-2-yl]formamido}-N-[(1S)-3-methyl-1-[(1-methyl-1-{[(1S)-3-methyl-1-{[(1S)-3-methyl-1-{[1-methyl-1-({1-methyl-1-[(2-{[2-(methylamino)ethyl]carbamoyl}ethyl)carbamoyl]ethyl}carbamoyl)ethyl]carbamoyl}butyl]carbamoyl}butyl]carbamoyl}ethyl)carbamoyl]butyl]decanamide] ({Oxazole4CO(2-Me)}-P[Gly(octyl)]L[Aib]LL[Aib][Aib][βAla]-NHCH2CH2NHMe) | 717 | –
Cc1nc(C(=O)N2CCC[C@H]2C(=O)N[C@@H](CCC2CCCCC2)C(=O)N[C@@H](CC(C)C)C(=O)NC(C)(C)C(=O)N[C@@H](CC(C)C)C(=O)N[C@@H](CC(C)C)C(=O)NC(C)(C)C(=O)NC(C)(C)C(=O)NCCC(=O)NC2(CN(C)C)CCC2)co1 [Compound 6025, (2S)-2-[(2S)-4-cyclohexyl-2-{[(2S)-1-(2-methyl-1,3-oxazole-4-carbonyl)pyrrolidin-2-yl]formamido}butanamido]-N-(1-{[(1S)-1-{[(1S)-1-({1-[(1-{[2-({1-[(dimethylamino)methyl]cyclobutyl}carbamoyl)ethyl]carbamoyl}-1-methylethyl)carbamoyl]-1-methylethyl}carbamoyl)-3-methylbutyl]carbamoyl}-3-methylbutyl]carbamoyl}-1-methylethyl)-4-methylpentanamide] ({Oxazole4CO(2-Me)}-P[hCha]L[Aib]LL[Aib][Aib][βAla]-{NH(1-CH2NMe2-cBu)}) | 396 | –
